# Experimental data reported in patent US20190125888A1, “TARGETED CONJUGATES AND PARTICLES AND FORMULATIONS THEREOF” (priority 2015, published 2019).
# Like-named read-outs stand apart in the source and are kept apart here.
# Assays:
# [1] = Chrom LogP of maytansinoid conjugates; type: physicochemical
# [2] = Ligand charge of maytansinoid conjugates; type: physicochemical
# [3] = target: human SSTR2 (Homo sapiens, UniProt P30874); assay: Radioligand-receptor binding assay, [125I] somatostatin, membranes from SSTR2 expressing CHO-K1 cells
# In short: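 CHO-K1 SSTR2 membranes incubated 4 h with 0.03 nM [125I] somatostatin and conjugates in a 10-point, 6-fold series from 10 uM. Bound radioligand measured after filtration and washing; IC50 by non-linear least-squares regression.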
# [4] = system: NCI-H524 (ATCC) human lung cancer cells; type: cell-based
# In short: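 NCI-H524 cells (5,000/well) exposed to conjugates for 6 hours, washed, then grown a further 66 hours; ten-point threefold dilutions from 20 μM. Proliferation by CellTiter-Glo versus vehicle; IC50 by four-parameter nonlinear regression, measured with and without octreotide competition.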
# [5] = Half-life in rat plasma; type: in vitro ADME; details: read-out: rat plasma t½ (converted)
# Protocol: (§1) Half-life (t1/2) of maytansinoid conjugates were measured in rat plasma and rat liver microsomes (LM). PK values of maytansinoid conjugates in NCI-H69 SCLC (small cell lung cancer) tumor cells were measured.
# [6] = Half-life in rat liver microsomes; type: in vitro ADME; details: read-out: rat LM t½ (mm)
# Protocol: as §1
# [7] = system: NCI-H69 SCLC (small cell lung cancer) tumor cells; assay: H69 tumor PK; type: in vivo
# Protocol: as §1
# [8] = system: human NCI-H69 SCLC; assay: H69 xenograft efficacy study, tumor growth inhibition; type: in vivo, mice; details: for TGI % Day 11 / TGI % Day 14 / TGI % Day 18 / TGI % Day 21 / TGI % Day 25: 0.7 mg/kg once weekly for two doses
# Protocol: Applicants assessed the activity of maytansinoid conjugates in vivo. In these experiments, the ability of conjugates to affect the growth of human NCI-H69 SCLC was tested. For the in vivo study, 8 week old female NCR nude mice were inoculated subcutaneously into the right flank with 2 million cells in 1:1 RPMI 1640 (Invitrogen, Carlsbad, Calif.)/Matrigel® (BD Biosciences, San Jose, Calif.). Tumor measurements were taken twice weekly, using vernier calipers. Tumor volume was calculated using the formula: V=0.5×width×width×length.
# When tumors approached a volume of 200 mm^3, mice were randomized into four groups of ten animals. Mice were treated with vehicle control (10% propylene glycol in water for injection) and maytansinoid conjugates (10% propylene glycol in water for injection). Final tumor volumes were analyzed using with a one-way analysis of variance and Tukey multiple comparison test.
# [9] = Pharmacokinetics study in mouse; details: in vivo
# Protocol: Pharmacokinetics studies in mouse were also carried out. Half-life, Cmax and AUC values of Conjugate 6 were show in Table 10.
# [10] = system: phospho-histone H3; assay: Phospho-histone H3 response in NCI-H69 tumors; type: in vivo, mice
# Protocol: Phospho-histone H3 response in NCI-H69 tumors was measured. […] At 24 hour, adjusted phospho-histone H3 response for Conjugate 6 was about 500 (fluorescence signal) and at 48 hour it was about 2300 (fluorescence signal).
# [11] = read-out: H524 IC50 6 h, 6 hours treatment, further 66 hours incubation
# [12] = read-out: H524 IC50 with 100 μM octreotide 6 h, with 100 μM octreotide competition, 6 h treatment
# [13] = 1.3 mg/kg once weekly for two doses
# [14] = 2 mg/kg once weekly for two doses
# [15] = 1.5 mg/kg once weekly for two doses
# human SSTR2, sequence (P30874 whole entry): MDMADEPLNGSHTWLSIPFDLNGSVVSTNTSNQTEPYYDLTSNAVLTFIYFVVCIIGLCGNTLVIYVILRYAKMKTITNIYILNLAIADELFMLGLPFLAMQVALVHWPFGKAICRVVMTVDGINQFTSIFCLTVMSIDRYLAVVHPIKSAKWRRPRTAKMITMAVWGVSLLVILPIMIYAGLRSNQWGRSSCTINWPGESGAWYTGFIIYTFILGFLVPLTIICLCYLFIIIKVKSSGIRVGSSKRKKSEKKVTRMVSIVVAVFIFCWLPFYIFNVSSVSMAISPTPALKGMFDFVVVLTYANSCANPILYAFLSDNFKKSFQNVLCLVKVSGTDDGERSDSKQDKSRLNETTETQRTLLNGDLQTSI
smiles,measurement,setting,value
COc1cc2cc(c1Cl)N(C)C(=O)C[C@H](OC(=O)[C@H](C)N(C)C(=O)CCSSC(C)(C)[C@H](NC(=O)[C@@H]1CSSC[C@H](NC(=O)[C@H](N)Cc3ccccc3)C(=O)N[C@@H](Cc3ccc(O)cc3)C(=O)N[C@H](Cc3c[nH]c4ccccc34)C(=O)N[C@@H](CCCCN)C(=O)N[C@@H]([C@@H](C)O)C(=O)N1)C(N)=O)[C@]1(C)O[C@H]1[C@H](C)[C@@H]1C[C@@](O)(NC(=O)O1)[C@H](OC)/C=C/C=C(\C)C2 [Conjugate 6],chromatographic logP,[1],2.06
same,Ligand charge,[2],+2
same,Ki,[3],0.021 nM
same,IC50,[4]; [11],13 nM
same,IC50,[4]; [12],545 nM
same,half-life,[5],18.2 h
same,half-life,[6],2.97 h
same,H69 tumor PK normalized- uM/umol/kg at 1 mpk in 10% PG,[7],Ca. 0.420 uM/umol/kg
same,TGI % at day 33,"[8]; 0.7 mg/kg once weekly for three doses, day 33",31.9%
same,TGI % Day 11,[8],55%
same,TGI % Day 14,[8],60%
same,TGI % Day 18,[8],65%
same,TGI % Day 21,[8],69%
same,TGI % Day 25,[8],59%
same,TGI % Day 13,[8]; [13],69.1%
same,TGI % Day 17,[8]; [13],75.6%
same,TGI % Day 20,[8]; [13],76.8%
same,TGI % Day 24,[8]; [13],72.7%
same,TGI % Day 30,[8]; [13],72.1%
same,TGI % Day 13,[8]; [14],93.4%
same,TGI % Day 17,[8]; [14],96.2%
same,TGI % Day 20,[8]; [14],98.2%
same,TGI % Day 24,[8]; [14],99.5%
same,TGI % Day 30,[8]; [14],99.9%
same,TGI % at day 22,"[8]; Dose 0.63 × 3 mg/kg, total dose 1.89 mg/kg",47%
same,TGI % at day 22,"[8]; Dose 0.65 × 2 mg/kg, total dose 1.3 mg/kg",69%
same,TGI % at day 22,"[8]; Dose 1.2 × 2 mg/kg, total dose 2.4 mg/kg",77%
same,TGI % at day 22,"[8]; Dose 2.0 × 2 mg/kg, total dose 4.0 mg/kg",98%
same,AUC(0-inf),[9],4.45 µM·h
same,Cmax,[9],3000 nM
same,half-life,[9]; read-out: t½ (converted),2.05 h
same,adjusted phospho-histone H3 response,[10]; at 24 hour,about 500 fluorescence signal
same,adjusted phospho-histone H3 response,[10]; at 48 hour,about 2300 fluorescence signal
COc1cc2cc(c1Cl)N(C)C(=O)C[C@H](OC(=O)[C@H](C)N(C)C(=O)CCSSC(C)(C)[C@H](NC(=O)[C@@H]1CSSC[C@H](NC(=O)[C@@H](Cc3ccccc3)NS(C)(=O)=O)C(=O)N[C@@H](Cc3ccc(O)cc3)C(=O)N[C@H](Cc3c[nH]c4ccccc34)C(=O)N[C@@H](CCCCN)C(=O)N[C@@H]([C@@H](C)O)C(=O)N1)C(N)=O)[C@]1(C)O[C@H]1[C@H](C)[C@@H]1C[C@@](O)(NC(=O)O1)[C@H](OC)/C=C/C=C(\C)C2 [Conjugate 10],chromatographic logP,[1],2.66
same,Ligand charge,[2],+1
same,Ki,[3],0.035 nM
same,IC50,[4]; [11],3.3 nM
same,IC50,[4]; [12],246 nM
same,H69 tumor PK normalized- uM/umol/kg at 1 mpk in 10% PG,[7],0.546 uM/umol/kg
same,TGI % Day 11,[8],48%
same,TGI % Day 14,[8],59%
same,TGI % Day 18,[8],54%
same,TGI % Day 21,[8],53%
same,TGI % Day 25,[8],42%
same,TGI % Day 13,[8]; [15],92.2%
same,TGI % Day 17,[8]; [15],95.6%
same,TGI % Day 20,[8]; [15],97.8%
same,TGI % Day 24,[8]; [15],99.5%
same,TGI % Day 30,[8]; [15],99.6%
same,TGI % at day 22,"[8]; Dose 0.60 × 2 mg/kg, total dose 1.20 mg/kg",53%
same,TGI % at day 22,"[8]; Dose 1.54 × 2 mg/kg, total dose 3.08 mg/kg",98%
COc1cc2cc(c1Cl)N(C)C(=O)C[C@H](OC(=O)[C@H](C)N(C)C(=O)CCSSC[C@H](NC(=O)[C@@H]1CSSC[C@H](NC(=O)[C@@H](Cc3ccccc3)NC(=O)Nc3ccccc3)C(=O)N[C@@H](Cc3ccc(O)cc3)C(=O)N[C@H](Cc3c[nH]c4ccccc34)C(=O)N[C@@H](CCCCN)C(=O)N[C@@H]([C@@H](C)O)C(=O)N1)C(N)=O)[C@]1(C)O[C@H]1[C@H](C)[C@@H]1C[C@@](O)(NC(=O)O1)[C@H](OC)/C=C/C=C(\C)C2 [Conjugate 42],chromatographic logP,[1],2.87
same,Ligand charge,[2],+1
same,Ki,[3],0.042 nM
same,IC50,[4]; [11],1.7 nM
same,IC50,[4]; [12],115 nM
COc1cc2cc(c1Cl)N(C)C(=O)C[C@H](OC(=O)[C@H](C)N(C)C(=O)CCSSC[C@H](NC(=O)[C@@H]1CSSC[C@H](NC(=O)[C@H](N)Cc3ccccc3)C(=O)N[C@@H](Cc3ccc(O)cc3)C(=O)N[C@H](Cc3c[nH]c4ccccc34)C(=O)N[C@@H](CCCCNC(=O)NCCCCCCN)C(=O)N[C@@H]([C@@H](C)O)C(=O)N1)C(N)=O)[C@]1(C)O[C@H]1[C@H](C)[C@@H]1C[C@@](O)(NC(=O)O1)[C@H](OC)/C=C/C=C(\C)C2 [Conjugate 56],chromatographic logP,[1],1.92
same,Ligand charge,[2],+2
same,Ki,[3],1900 nM
same,IC50,[4]; [11],246 nM
same,IC50,[4]; [12],361 nM
COc1cc2cc(c1Cl)N(C)C(=O)C[C@H](OC(=O)[C@H](C)N(C)C(=O)CCSSC(C)(C)[C@H](NC(=O)[C@@H]1CSSC[C@H](NC(=O)[C@H](N)Cc3ccccc3)C(=O)N[C@@H](Cc3ccc(O)cc3)C(=O)N[C@H](Cc3c[nH]c4ccccc34)C(=O)N[C@@H](CCCCNC(=O)NCCCCCCN)C(=O)N[C@@H]([C@@H](C)O)C(=O)N1)C(N)=O)[C@]1(C)O[C@H]1[C@H](C)[C@@H]1C[C@@](O)(NC(=O)O1)[C@H](OC)/C=C/C=C(\C)C2 [Conjugate 57],chromatographic logP,[1],2.12
same,Ligand charge,[2],+2
same,Ki,[3],69 nM
same,IC50,[4]; [11],408 nM
same,IC50,[4]; [12],652 nM
